The target of this experiment is T1, HLA-DR1 (DRB1*0101) (Homo sapiens, UniProt P01903+P01911, A100R/D57E/F55L/F60I/F76Y/I96L/L162R/M171V/P40L/Q125E/R42F/V115G/Y59C).
T1 construct: the extracellular portion of HLA-DR1 was produced by expression of isolated subunits in Escherichia coli inclusion bodies; made in house
The experiment can be described thus: biochemical. The class given is binding.

In PMC2014795 (PLoS Pathogens, 2007) one finds IC50 data, which are given here for ten compounds.

Compound `CC[C@H](C)[C@H](N)C(=O)N[C@@H](Cc1ccccc1)C(=O)N[C@@H](CCCCN)C(=O)N[C@@H](CC(N)=O)C(=O)N[C@@H](CC(N)=O)C(=O)N[C@@H](CC(=O)O)C(=O)N[C@H](C(=O)N[C@@H](CCCNC(=N)N)C(=O)N[C@H](C(=O)N[C@@H](CC(C)C)C(=O)N[C@@H](CC(C)C)C(=O)NCC(=O)N[C@@H](CC(C)C)C(=O)N[C@H](C(=O)N[C@@H](CC(C)C)C(=O)N[C@@H](Cc1ccccc1)C(=O)N[C@H](C(=O)N[C@@H](CC(C)C)C(=O)N[C@@H](C)C(=O)N[C@@H](CC(C)C)C(=O)N[C@@H](Cc1ccc(O)cc1)C(=O)O)C(C)C)[C@@H](C)CC)[C@@H](C)O)C(C)C` [Peptide 322] yielded an IC50 of 1270 nM.

Consider `CC[C@H](C)[C@H](NC(=O)[C@H](Cc1ccc(O)cc1)NC(=O)CNC(=O)[C@H](C)NC(=O)[C@H](CC(C)C)NC(=O)[C@H](CCC(N)=O)NC(=O)[C@H](Cc1ccc(O)cc1)NC(=O)[C@H](Cc1ccc(O)cc1)NC(=O)[C@@H](NC(=O)[C@@H](NC(=O)[C@H](CC(C)C)NC(=O)[C@H](Cc1c[nH]cn1)NC(=O)[C@@H](NC(=O)[C@H](C)N)C(C)C)[C@@H](C)CC)[C@@H](C)CC)C(=O)N[C@@H](CC(C)C)C(=O)N[C@H](C(=O)N[C@H](C(=O)N[C@@H](CC(C)C)C(=O)NCC(=O)N[C@@H](CC(C)C)C(=O)NCC(=O)O)C(C)C)[C@@H](C)O` [Peptide 323], for which the IC50 is 2170 nM. Compared with the last compound, the IC50 is about 1.7-fold higher.

`CC[C@H](C)[C@H](NC(=O)[C@H](Cc1ccccc1)NC(=O)[C@H](CC(C)C)NC(=O)[C@H](CC(C)C)NC(=O)[C@H](CS)NC(=O)[C@@H](NC(=O)[C@H](C)NC(=O)[C@H](C)NC(=O)[C@@H](NC(=O)[C@H](C)NC(=O)[C@@H](NC(=O)[C@@H](NC(=O)[C@@H](NC(=O)[C@H](Cc1ccccc1)NC(=O)[C@H](Cc1ccccc1)NC(=O)[C@@H](NC(=O)[C@H](CO)NC(=O)[C@H](CC(C)C)NC(=O)[C@H](CO)NC(=O)[C@H](CC(N)=O)NC(=O)[C@@H](N)CCSC)[C@@H](C)CC)[C@@H](C)CC)C(C)C)C(C)C)[C@@H](C)O)C(C)C)C(=O)O` [Peptide 325] registered an IC50 of 580 ± 50 nM.

Turning to `CC[C@H](C)[C@H](NC(=O)CNC(=O)[C@@H](NC(=O)[C@@H]1CCCN1C(=O)[C@@H](NC(=O)CNC(=O)CNC(=O)CNC(=O)[C@@H](N)CC(C)C)[C@@H](C)O)[C@@H](C)CC)C(=O)N[C@H](C(=O)N[C@@H](CO)C(=O)N[C@@H](C)C(=O)N[C@@H](CCC(N)=O)C(=O)N[C@H](C(=O)N[C@@H](CC(C)C)C(=O)N[C@@H](CO)C(=O)N[C@@H](CCC(=O)O)C(=O)N[C@@H](CCCCN)C(=O)N[C@@H](Cc1ccccc1)C(=O)N[C@H](C(=O)N[C@@H](CCC(N)=O)C(=O)O)[C@@H](C)O)C(C)C)[C@@H](C)CC` [Peptide 326], the midpoint of inhibition, the IC50, lay at 29 ± 8 nM.

Regarding `CC[C@H](C)[C@H](NC(=O)[C@H](CC(N)=O)NC(=O)[C@H](CCSC)NC(=O)[C@H](CS)NC(=O)[C@H](CCC(N)=O)NC(=O)[C@@H](NC(=O)[C@@H](NC(=O)[C@H](CCCCN)NC(=O)CN)[C@@H](C)O)[C@@H](C)O)C(=O)N[C@@H](CCSC)C(=O)N[C@@H](CCC(=O)O)C(=O)N[C@@H](CO)C(=O)N[C@H](C(=O)N1CCC[C@H]1C(=O)N[C@@H](C)C(=O)N[C@@H](CC(N)=O)C(=O)N[C@H](C(=O)N[C@H](C(=O)N[C@@H](CCCCN)C(=O)N[C@@H](Cc1ccc(O)cc1)C(=O)N[C@@H](CC(C)C)C(=O)O)[C@@H](C)CC)[C@@H](C)O)[C@@H](C)CC` [Peptide 327], the IC50 turned out to be 11 ± 3 nM.

Turning to `CC[C@H](C)[C@H](NC(=O)[C@H](CCCNC(=N)N)NC(=O)[C@H](CC(=O)O)NC(=O)[C@@H](NC(=O)[C@H](CCCCN)NC(=O)[C@@H](NC(=O)[C@H](CO)NC(=O)[C@H](CCC(=O)O)NC(=O)[C@@H](NC(=O)[C@H](Cc1ccc(O)cc1)NC(=O)[C@H](CCSC)NC(=O)[C@H](Cc1ccccc1)NC(=O)[C@H](CO)NC(=O)[C@H](Cc1ccccc1)NC(=O)[C@H](CCCCN)NC(=O)[C@H](Cc1ccccc1)NC(=O)[C@H](Cc1ccccc1)NC(=O)[C@@H](N)CC(=O)O)[C@@H](C)CC)[C@@H](C)CC)C(C)C)C(=O)NCC(=O)N[C@@H](CC(=O)O)C(=O)N[C@@H](CC(N)=O)C(=O)O` [Peptide 328], the IC50 stood at 140 ± 20 nM.

The compound `CC[C@H](C)[C@H](NC(=O)[C@H](CC(N)=O)NC(=O)[C@H](Cc1ccccc1)NC(=O)[C@H](CC(C)C)NC(=O)[C@H](CCCCN)NC(=O)[C@H](CC(N)=O)NC(=O)CNC(=O)[C@H](CC(=O)O)NC(=O)[C@H](CC(C)C)NC(=O)[C@@H]1CCCN1C(=O)[C@@H](NC(=O)[C@@H](NC(=O)[C@H](CCCCN)NC(=O)[C@@H](NC(=O)[C@H](CCCCN)NC(=O)[C@H](CS)NC(=O)[C@H](CO)NC(=O)[C@@H](N)Cc1c[nH]cn1)C(C)C)[C@@H](C)CC)C(C)C)C(=O)N[C@@H](C)C(=O)N[C@@H](CCC(N)=O)C(=O)N[C@@H](CCCNC(=N)N)C(=O)O` [Peptide 329] yielded an IC50 of 5 ± 1 nM.

With `CC[C@H](C)[C@H](NC(=O)[C@H](CO)NC(=O)[C@H](C)NC(=O)[C@H](CC(=O)O)NC(=O)[C@H](CC(C)C)NC(=O)[C@H](CC(C)C)NC(=O)[C@H](CO)NC(=O)[C@H](C)NC(=O)[C@@H](NC(=O)[C@H](CO)NC(=O)[C@@H](NC(=O)[C@@H](NC(=O)[C@@H](NC(=O)[C@@H](NC(=O)[C@@H](NC(=O)[C@H](CCCCN)NC(=O)[C@@H](N)CCSC)C(C)C)C(C)C)[C@@H](C)CC)C(C)C)[C@@H](C)O)C(C)C)C(=O)N[C@@H](CCC(N)=O)C(=O)N[C@@H](Cc1ccccc1)C(=O)N[C@@H](CCC(N)=O)C(=O)N[C@@H](CCCCN)C(=O)O` [Peptide 332], 380 ± 28 nM corresponded to half-maximal inhibition (IC50). This IC50 is about 76-fold higher than that of the compound before.

As to `CC[C@H](C)[C@H](N)C(=O)N[C@@H](CCCCN)C(=O)N[C@@H](CCCNC(=N)N)C(=O)NCC(=O)N[C@@H](CC(C)C)C(=O)N[C@@H](Cc1ccccc1)C(=O)N[C@@H](Cc1ccccc1)C(=O)N[C@@H](CC(C)C)C(=O)N[C@@H](CCCNC(=N)N)C(=O)N[C@@H](CC(C)C)C(=O)N[C@@H](CO)C(=O)N[C@@H](C)C(=O)N[C@@H](CC(N)=O)C(=O)N[C@@H](CC(C)C)C(=O)N[C@@H](Cc1ccccc1)C(=O)N[C@@H](CCC(=O)O)C(=O)N[C@@H](CO)C(=O)N[C@@H](CCC(N)=O)C(=O)N[C@H](C(=O)N[C@@H](CO)C(=O)N[C@@H](CO)C(=O)O)C(C)C` [Peptide 333], 68 ± 14 nM corresponded to half-maximal inhibition (IC50).

In the case of `CC[C@H](C)[C@H](NC(=O)[C@H](CCCNC(=N)N)NC(=O)[C@H](Cc1ccccc1)NC(=O)[C@H](CC(C)C)NC(=O)[C@H](Cc1ccc(O)cc1)NC(=O)[C@H](CCC(=O)O)NC(=O)[C@H](CO)NC(=O)[C@H](CC(=O)O)NC(=O)[C@@H](N)CCC(=O)O)C(=O)N[C@H](C(=O)N[C@@H](CO)C(=O)N[C@H](C(=O)N[C@H](C(=O)N[C@@H](CC(C)C)C(=O)N1CCC[C@H]1C(=O)N[C@@H](Cc1c[nH]cn1)C(=O)N[C@@H](CC(C)C)C(=O)N[C@@H](CS)C(=O)N[C@@H](CC(C)C)C(=O)N[C@@H](CC(=O)O)C(=O)N[C@@H](Cc1ccc(O)cc1)C(=O)O)C(C)C)[C@@H](C)O)C(C)C` [Peptide 334], the IC50 worked out at 45 ± 8 nM.
